From patent US8741906B2 (priority 2011, dated 2014) come the findings set out here.

The target of one experiment is T1, human CB1 receptors (Homo sapiens, UniProt P21554).
T1 construct: expressed in transfected cells; host or cells: CHO cells
In words: functional cAMP assay, human CB1. It counts as cell-based. The procedure, abridged: (§1)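 Cells are seeded 17-24 h ahead, then preincubated in Krebs Ringer bicarbonate buffer with 1 mM IBMX at 30 °C. Compounds act for 30 min at 30 °C, after which lysis and cAMP detection reagents are added for 2 h at room temperature. Time-resolved FRET gives cAMP content, and EC50 values are fitted from it.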

A further experiment addresses T2, human CB2 receptors (Homo sapiens, UniProt P34972).
T2 construct: expressed in transfected cells; host or cells: CHO cells
In words: functional cAMP assay, human CB2. It counts as cell-based. The note with it: CHO cells expressing human CB2, cAMP; read-out: human CB2 EC50. The essentials: as §1

The mark [1] stands for this setting: CHO cells expressing human CB1, cAMP, read-out: human CB1 EC50.

Molecules are shown by their SMILES. pEC50: −log10 of the molar value. Where two headings read alike, the source gives them in different places. A value given as a limit tells only on which side of the number the result lay.

T1 sequence (P21554 whole entry): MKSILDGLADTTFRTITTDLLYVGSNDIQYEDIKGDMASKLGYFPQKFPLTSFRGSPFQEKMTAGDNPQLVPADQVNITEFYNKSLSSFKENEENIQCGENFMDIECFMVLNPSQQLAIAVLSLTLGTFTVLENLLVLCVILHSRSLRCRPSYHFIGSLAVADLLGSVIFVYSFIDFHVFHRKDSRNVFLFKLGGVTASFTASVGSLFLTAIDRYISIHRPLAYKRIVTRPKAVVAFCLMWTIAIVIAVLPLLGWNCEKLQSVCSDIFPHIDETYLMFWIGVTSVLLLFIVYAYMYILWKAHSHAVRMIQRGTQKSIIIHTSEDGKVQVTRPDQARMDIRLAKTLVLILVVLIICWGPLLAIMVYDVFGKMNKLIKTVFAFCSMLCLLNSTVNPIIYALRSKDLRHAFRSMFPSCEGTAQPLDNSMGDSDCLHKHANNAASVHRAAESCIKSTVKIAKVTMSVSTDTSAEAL
T2 sequence (P34972 whole entry): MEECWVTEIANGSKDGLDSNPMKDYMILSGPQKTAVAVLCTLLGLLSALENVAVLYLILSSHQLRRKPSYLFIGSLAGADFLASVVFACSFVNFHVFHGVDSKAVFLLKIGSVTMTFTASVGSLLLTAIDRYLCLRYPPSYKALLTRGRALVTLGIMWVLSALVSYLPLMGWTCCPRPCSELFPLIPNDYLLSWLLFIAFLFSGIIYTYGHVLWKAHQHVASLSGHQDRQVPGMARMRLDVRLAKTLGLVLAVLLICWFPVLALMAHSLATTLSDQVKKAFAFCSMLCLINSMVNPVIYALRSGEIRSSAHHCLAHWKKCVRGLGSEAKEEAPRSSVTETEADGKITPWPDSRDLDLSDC

`CC(C)(C)c1nc(N2CCOCC2CO)c2nnn(Cc3ccccc3Cl)c2n1` (centres unmarked) [Example 48, {4-[5-tert-Butyl-3-(2-chloro-benzyl)-3H-[1,2,3]triazolo[4,5-d]pyrimidin-7-yl]-morpholin-3-yl}-methanol]: the pEC50 is under 5.00 on human CB1 receptors (setting [1]) and 8.08 on human CB2 receptors.
The matching figures for `CC(C)(C)c1nc(N2CCC[C@@H]2CO)c2nnn(Cc3ccccc3Cl)c2n1` [Example 37, {(R)-1-[5-tert-Butyl-3-(2-chloro-benzyl)-3H-[1,2,3]triazolo[4,5-d]pyrimidin-7-yl]-pyrrolidin-2-yl}-methanol]: 6.31 and 9.52.
For `CC(C)(C)c1nc(N2CC[C@](C)(O)C2)c2nnn(Cc3ncccc3Cl)c2n1` [Example 224-a, (S)-1-(5-tert-butyl-3-((3-chloropyridin-2-yl)methyl)-3H-[1,2,3]triazolo[4,5-d]pyrimidin-7-yl)-3-methylpyrrolidin-3-ol], in that order: 6.05 and 8.96.
As to `COC[C@H]1CCCN1c1nc(C(C)(C)C)nc2c1nnn2Cc1ccccc1Cl` [Example 44, 5-tert-Butyl-3-(2-chloro-benzyl)-7-((R)-2-methoxymethyl-pyrrolidin-1-yl)-3H-[1,2,3]triazolo[4,5-d]pyrimidine], the pEC50 on human CB1 receptors (setting [1]) was under 5.00; at human CB2 receptors, 9.00.
For `CC(C)(C)c1nc(N2CC[C@H](O)[C@@H]2CO)c2nnn(Cc3ccccc3Cl)c2n1` [Example 51, (2S,3S)-1-[5-tert-Butyl-3-(2-chloro-benzyl)-3H-[1,2,3]triazolo[4,5-d]pyrimidin-7-yl]-2-hydroxymethyl-pyrrolidin-3-ol], in that order: under 5.00 and 8.62.
The matching figures for `CC(C)(C)c1nc(N2CC[C@](C)(O)C2)c2nnn(Cc3ccccc3C(F)(F)F)c2n1` [Example 222-a, (S)-1-(5-tert-butyl-3-(2-(trifluoromethyl)benzyl)-3H-[1,2,3]triazolo[4,5-d]pyrimidin-7-yl)-3-methylpyrrolidin-3-ol]: 6.05 and 9.10.
On to `CC(C)(C)c1nc(N2CC[C@H](O)C2)c2nnn(Cc3cccnc3Nc3ccc([N+](=O)[O-])c4nonc34)c2n1` [Example 158, (S)-1-{5-tert-Butyl-3-[2-(7-nitro-benzo[1,2,5]oxadiazol-4-ylamino)-pyridin-3-ylmethyl]-3H-[1,2,3]triazolo[4,5-d]pyrimidin-7-yl}-pyrrolidin-3-ol], for which the pEC50 is under 5.00 on human CB1 receptors and 6.60 at human CB2 receptors.
With `COc1ccc(Cn2nnc3c(N4CCOCC4)nc(C(C)(C)C)nc32)cc1` [Example 57, 5-tert-Butyl-3-(4-methoxy-benzyl)-7-morpholin-4-yl-3H-[1,2,3]triazolo[4,5-d]pyrimidine], the pEC50 is under 5.00 at human CB1 receptors (setting [1]) and 7.91 at human CB2 receptors.
Take `Cc1nonc1Cn1nnc2c(N3CC4(COC4)C3)nc(C(C)(C)C)nc21` [Example 179, 5-tert-Butyl-3-(4-methyl-furazan-3-ylmethyl)-7-(2-oxa-6-aza-spiro[3.3]hept-6-yl)-3H-[1,2,3]triazolo[4,5-d]pyrimidine]: the pEC50 at human CB1 receptors (setting [1]) was under 5.00; at human CB2 receptors it was 8.70.
The matching figures for `Cc1nonc1Cn1nnc2c(N3CC[C@](C)(O)C3)nc(C(C)(C)C)nc21` [Example 228-a, (S)-1-(5-tert-butyl-3-((4-methyl-1,2,5-oxadiazol-3-yl)methyl)-3H-[1,2,3]triazolo[4,5-d]pyrimidin-7-yl)-3-methylpyrrolidin-3-ol]: under 5.00 and 8.74.
For `CC(C)(C)c1nc(N2CCC(F)(F)C2)c2nnn(Cc3ccc(Cl)cc3Cl)c2n1` [Example 68, 5-tert-Butyl-3-(2,4-dichloro-benzyl)-7-(3,3-difluoro-pyrrolidin-1-yl)-3H-[1,2,3]triazolo[4,5-d]pyrimidine], in that order: under 5.00 and 9.15.
As to `CC(C)(C)c1nc(N2CC3(COC3)C2)c2nnn(Cc3ccccc3Cl)c2n1` [Example 10, 5-tert-Butyl-3-(2-chloro-benzyl)-7-(2-oxa-6-aza-spiro[3.3]hept-6-yl)-3H-[1,2,3]triazolo[4,5-d]pyrimidine], the pEC50 was 6.39 on human CB1 receptors (setting [1]) and 8.62 at human CB2 receptors.
Consider `Cc1nnc(Cn2nnc3c(N4CC5(COC5)C4)nc(C(C)(C)C)nc32)o1` [Example 181, 5-tert-Butyl-3-(5-methyl-[1,3,4]oxadiazol-2-ylmethyl)-7-(2-oxa-6-aza-spiro[3.3]hept-6-yl)-3H-[1,2,3]triazolo[4,5-d]pyrimidine], for which the values for the pEC50 at human CB1 receptors (setting [1]) and at human CB2 receptors were under 5.00 and 7.23, respectively.
With `Cc1cc(Cn2nnc3c(N4CC[C@H](O)C4)nc(C(C)(C)C)nc32)n(C)n1` [Example 155, (S)-1-[5-tert-Butyl-3-(2,5-dimethyl-2H-pyrazol-3-ylmethyl)-3H-[1,2,3]triazolo[4,5-d]pyrimidin-7-yl]-pyrrolidin-3-ol], the pEC50 at human CB1 receptors (setting [1]) is under 5.00; on human CB2 receptors it was 8.52.
The matching figures for `CC(C)(C)c1nc(N2C[C@@H](O)[C@H](O)C2)c2nnn(Cc3ccccc3Cl)c2n1` (relative stereo) [Example 55, 1-[5-tert-Butyl-3-(2-chloro-benzyl)-3H-[1,2,3]triazolo[4,5-c]pyrimidin-7-yl]-pyrrolidine-3,4-trans-diol]: under 5.00 and 7.98.
In the case of `CC(C)(C)c1nc(N2CCC(F)(F)C2)c2nnn(CC(=O)c3cccnc3)c2n1` [Example 117, 2-[5-tert-Butyl-7-(3,3-difluoro-pyrrolidin-1-yl)-[1,2,3]triazolo[4,5-d]pyrimidin-3-yl]-1-pyridin 3-yl-ethanone], the figures for the pEC50 at human CB1 receptors (setting [1]) and at human CB2 receptors were under 5.00 and 9.70, respectively.
For the compound `CC(C)(C)c1nc(N2CCC(O)C2)c2nnn(Cc3ccccc3Cl)c2n1` (centres unmarked) [Example 218, 1-(5-tert-butyl-3-(2-chlorobenzyl)-3H-[1,2,3]triazolo[4,5-d]pyrimidin-7-yl)pyrrolidin-3-ol], the pEC50 on human CB1 receptors (setting [1]) was under 5.00; on human CB2 receptors, 9.30.
For `CC(C)(C)c1nc(N2C[C@@H](O)C[C@@H]2CO)c2nnn(Cc3ccccc3Cl)c2n1` [Example 93, (3S,5R)-1-[5-tert-Butyl-3-(2-chloro-benzyl)-3H-[1,2,3]triazolo[4,5-d]pyrimidin-7-yl]-5-hydroxymethyl-pyrrolidin-3-ol], in that order: under 5.00 and 8.35.
`CC(C)(C)c1nc(N2CCC(F)(F)C2)c2nnn(Cc3cc(F)c(F)cc3Cl)c2n1` [Example 77, 5-tert-Butyl-3-(2-chloro-4,5-difluoro-benzyl)-7-(3,3-difluoro-pyrrolidin-1-yl)-3H-[1,2,3]triazolo[4,5-d]pyrimidine]: the pEC50 at human CB1 receptors (setting [1]) was under 5.00; on human CB2 receptors it was 9.10.
The matching figures for `CC(C)(C)c1nc(N2CCC23COC3)c2nnn(Cc3ccccc3Cl)c2n1` [Example 35, 5-tert-Butyl-3-(2-chloro-benzyl)-7-(6-oxa-1-aza-spiro[3.3]hept-1-yl)-3H-[1,2,3]triazolo[4,5-d]pyrimidine]: under 5.00 and 8.44.
The matching figures for `CC(C)(C)c1nc(N2CC3(COC3)C2)c2nnn(Cc3nnnn3C3CC3)c2n1` [Example 183, 5-tert-Butyl-3-(1-cyclopropyl-1H-tetrazol-5-ylmethyl)-7-(2-oxa-6-aza-spiro[3.3]hept-6-yl)-3H-[1,2,3]triazolo[4,5-d]pyrimidine]: under 5.00 and 8.38.
For `CC(C)(C)c1nc(N2CCC3(COC3)C2)c2nnn(Cc3ccccc3Cl)c2n1` [Example 31, 5-tert-Butyl-3-(2-chloro-benzyl)-7-(2-oxa-6-aza-spiro[3.4]oct-6-yl)-3H-[1,2,3]triazolo[4,5-d]pyrimidine], in that order: 5.90 and 8.01.
For `CC(C)(C)c1nc(N2CCC(F)(F)C2)c2nnn(Cc3cccc(Cl)c3Cl)c2n1` [Example 67, 5-tert-Butyl-3-(2,3-dichloro-benzyl)-7-(3,3-difluoro-pyrrolidin-1-yl)-3H-[1,2,3]triazolo[4,5-d]pyrimidine], the pEC50 on human CB1 receptors (setting [1]) is 6.79; at human CB2 receptors, 9.70.
On to `CC(C)(C)c1nc(N2CC[C@H](O)[C@@H]2CO)c2nnn(Cc3ccccc3S(C)(=O)=O)c2n1` [Example 168, (2S,3S)-1-[5-tert-Butyl-3-(2-methanesulfonyl-benzyl)-3H-[1,2,3]triazolo[4,5-d]pyrimidin-7-yl]-2-hydroxymethyl-pyrrolidin-3-ol], for which the figures for the pEC50 at human CB1 receptors (setting [1]) and on human CB2 receptors were under 5.00 and 8.03, respectively.
For `CC(Oc1nc(C(C)(C)C)nc2c1nnn2Cc1ccccc1Cl)C(F)(F)F` (centres unmarked) [Example 214, 5-tert-Butyl-3-(2-chloro-benzyl)-7-(2,2,2-trifluoro-1-methyl-ethoxy)-3H-[1,2,3]triazolo[4,5-d]pyrimidine], in that order: under 5.00 and 8.03.
For `CC(C)(C)c1nc(N2CCC(F)(F)C2)c2nnn(Cc3cc(F)ccc3Cl)c2n1` [Example 90, 5-tert-Butyl-3-(2-chloro-5-fluoro-benzyl)-7-(3,3-difluoro-pyrrolidin-1-yl)-3H-[1,2,3]triazolo[4,5-d]pyrimidine], in that order: 6.43 and 9.30.
As for `CC(C)(C)c1nc(OC2COC2)c2nnn(Cc3ccccc3Cl)c2n1` [Example 206, 5-tert-Butyl-3-(2-chloro-benzyl)-7-(oxetan-3-yloxy)-3H-[1,2,3]triazolo[4,5-d]pyrimidine], the results for the pEC50 on human CB1 receptors (setting [1]) and at human CB2 receptors were under 5.00 and 7.95, respectively.
For `C[C@@H]1CC[C@@H](C)N1c1nc(C(C)(C)C)nc2c1nnn2Cc1ccccc1Cl` [Example 25, 5-tert-Butyl-3-(2-chloro-benzyl)-7-((2R,5R)-2,5-dimethyl-pyrrolidin-1-yl)-3H-[1,2,3]triazolo[4,5-d]pyrimidine], the results for the pEC50 on human CB1 receptors (setting [1]) and at human CB2 receptors were 6.04 and 7.51, respectively.
